Data reported in US8778958B2, “Synthesis of metabolically stable agents for alcohol and drug abuse” (priority 2008, dated 2014).

Assays:
Solubility in H2O = conditions: for solubility: water; for Solubility in H2O: salt as labelled
[1] = test system: rats trained to orally self-administer a 0.025% saccharin solution; experiment: Operant oral saccharin self-administration (control); assay type: in vivo, rat; conditions: ANOVA
Description: (§1) Ethanol or saccharin (SACC) self-administration training was conducted in standard operant cages (Coulbourn Instruments, PA) located in sound-attenuated, ventilated cubicles. Two 35-ml syringes dispensed either ethanol/SACC or water through plastic tubing into two stainless steel drinking cups mounted 4 cm above the grid floor and centered on the front panel of each chamber. Each drinking cup held 2 reinforcer deliveries (0.1 ml fluid/reinforcer). Two retractable levers were located 4.5 cm to either side of the drinking cups. Fluid delivery and recording of operant responses were controlled by a microcomputer. Briefly, animals were trained to voluntarily self-administer 10% (w/v) ethanol (n=10) or saccharin (n=6) by the oral route using the saccharin fadeout method^39 and were tested for their response for ethanol or saccharin solution in a two-lever free choice situation. Once baseline ethanol and saccharin intake were achieved (i.e., when responding across 3 consecutive days varied less than 20% and response rates correspond to pharmacologically relevant blood alcohol levels (BALs)), dose response testing for each compound commenced. To allow for a complete dissipation of any carry-over effects, a one week washout period, where rats were re-baselined during daily 30 min operant sessions, occurred between testing of each compound.
(§2) Data were collected on-line simultaneously from multiple operant chambers. Results of the operant procedure are reported as mean cumulative number of bar presses for ethanol or saccharin. In general, tests for homogeneity of variance were first performed on the data. […] Data were analyzed using the StatView statistical package on a PC-compatible computer. Mixed-design ANOVAs were used with drug treatments as a within-subjects factor (i.e., repeated measures design for drug treatment). A priori analysis examining individual drug doses to vehicle control dose was conducted using paired t-tests. Significant drug effects were defined as having p<0.05 compared to vehicle-treated rats.

[2] = Metabolic stability, human liver S-9; conditions: human, s9, pH 7.4
Description: (§3) A typical assay mixture contained rat or mouse liver microsomes or human liver S-9 (0.4-0.5 mg of protein), 100 μM potassium phosphate buffer (pH 7.4), 40 μM test compound, an NADPH-generating system consisting of 0.5 mM NADP^+, 0.5 mM glucose-6-phosphate, 5 IU/mL glucose-6-phosphate dehydrogenase, 1 mg/mL DETAPAC and 7 mM MgCl2 for a final incubation volume of 0.1 mL^23. […] After centrifugation at 13,000 rpm for 5 min, the organic fraction was collected and the solvent was removed with a stream of argon. The residue was reconstituted in methanol (200 L), centrifuged at 13,000 rpm for 5 min and the supernatant was analyzed by high-performance liquid chromatography with an Axxi-chrom (straight-phase) silica column (4.6 mm×250 mm, 5 m) or with a Supelco (reverse-phase) HS F5 pentafluorophenyl column (4.6 mm×250 mm, 5 m) as described above.

[3] = Metabolic stability, mouse liver microsomes; conditions: mouse, microsomes, pH 7.4
Description: as §3

[4] = test system: rats trained to self-administer a 10% (w/v) ethanol solution; experiment: Operant oral ethanol self-administration; assay type: in vivo, rat; conditions: for Overall effect on operant self-administration of 10% ethanol: ANOVA, treatment 30 min prior to testing
Description: as §1, §2

[5] = biological target: NOP (nociceptin) receptor (Homo sapiens, UniProt P41146)
Sequence of NOP (nociceptin) receptor (P41146 whole entry): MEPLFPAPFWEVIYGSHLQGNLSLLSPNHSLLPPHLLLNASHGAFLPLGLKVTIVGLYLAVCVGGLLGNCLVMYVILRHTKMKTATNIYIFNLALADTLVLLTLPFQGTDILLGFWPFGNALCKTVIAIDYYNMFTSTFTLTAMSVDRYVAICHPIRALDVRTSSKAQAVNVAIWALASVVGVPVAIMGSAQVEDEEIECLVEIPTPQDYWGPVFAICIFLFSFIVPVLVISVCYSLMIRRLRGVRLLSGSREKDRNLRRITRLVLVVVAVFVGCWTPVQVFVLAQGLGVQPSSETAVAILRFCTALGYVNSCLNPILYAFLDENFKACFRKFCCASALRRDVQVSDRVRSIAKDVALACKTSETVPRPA

δ-opioid receptor [6] = biological target: T1, δ-opioid receptor (Mus musculus, UniProt P32300); experiment: biochemical; parameters: species or system human; conditions: read-out: Emax, δ, stimulation of [35S]GTPγS binding
T1 construct: hemagglutinin (HA); expressed in transfected cells
T1 sequence (P32300 whole entry): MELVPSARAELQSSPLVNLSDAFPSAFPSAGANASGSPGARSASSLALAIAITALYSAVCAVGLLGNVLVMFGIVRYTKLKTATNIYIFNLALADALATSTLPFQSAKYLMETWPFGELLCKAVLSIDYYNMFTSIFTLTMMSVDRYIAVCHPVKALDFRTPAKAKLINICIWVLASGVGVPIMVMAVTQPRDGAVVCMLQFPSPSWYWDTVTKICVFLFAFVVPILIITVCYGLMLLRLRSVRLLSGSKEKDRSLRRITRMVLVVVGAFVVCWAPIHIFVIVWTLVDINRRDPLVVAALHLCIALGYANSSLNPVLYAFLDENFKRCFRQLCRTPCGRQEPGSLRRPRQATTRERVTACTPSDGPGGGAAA

μ-opioid receptor [7] = biological target: T2, μ-opioid receptor (Mus musculus, UniProt P42866); experiment: biochemical; parameters: species or system human; conditions: read-out: Emax, μ, stimulation of [35S]GTPγS binding
T2 construct: FLAG; expressed in transfected cells
T2 sequence (P42866 whole entry): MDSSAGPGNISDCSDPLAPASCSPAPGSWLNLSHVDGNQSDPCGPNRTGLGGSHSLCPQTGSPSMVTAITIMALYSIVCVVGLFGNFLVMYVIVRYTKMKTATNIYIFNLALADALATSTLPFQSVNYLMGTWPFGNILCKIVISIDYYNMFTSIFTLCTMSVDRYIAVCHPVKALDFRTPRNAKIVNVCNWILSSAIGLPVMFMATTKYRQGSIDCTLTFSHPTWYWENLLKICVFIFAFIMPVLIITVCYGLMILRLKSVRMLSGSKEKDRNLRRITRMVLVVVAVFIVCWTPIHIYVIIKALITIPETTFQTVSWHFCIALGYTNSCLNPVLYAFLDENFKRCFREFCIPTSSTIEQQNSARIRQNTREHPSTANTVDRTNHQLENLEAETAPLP

μ-opioid receptor [8] = biological target: T3, μ-opioid receptor (Homo sapiens, UniProt P35372); experiment: biochemical; assay type: binding; conditions: Ki (nM) ± SEM, μ, Table 1b, N-oxides
T3 construct: expressed in transfected cells; host or cells: CHO cells
T3 sequence (P35372 whole entry): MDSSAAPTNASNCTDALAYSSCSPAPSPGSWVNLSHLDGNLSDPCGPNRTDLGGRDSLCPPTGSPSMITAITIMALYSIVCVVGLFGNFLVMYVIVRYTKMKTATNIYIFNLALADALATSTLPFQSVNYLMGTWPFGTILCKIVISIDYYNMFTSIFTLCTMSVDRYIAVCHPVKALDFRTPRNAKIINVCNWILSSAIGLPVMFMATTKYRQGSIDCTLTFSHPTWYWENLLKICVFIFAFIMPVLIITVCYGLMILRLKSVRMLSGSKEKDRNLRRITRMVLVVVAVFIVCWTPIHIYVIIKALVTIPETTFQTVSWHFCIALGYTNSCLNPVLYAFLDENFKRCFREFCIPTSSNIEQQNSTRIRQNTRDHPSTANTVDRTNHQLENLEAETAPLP

δ-opioid receptor [9] = biological target: T4, δ-opioid receptor (Homo sapiens, UniProt P41143); experiment: biochemical; assay type: binding; conditions: Table 1b; for Inhibition of agonist binding, δ: concentration not given; for Ki: Ki (nM) ± SEM, δ, N-oxides
T4 construct: expressed in transfected cells; host or cells: CHO cells
T4 sequence (P41143 whole entry): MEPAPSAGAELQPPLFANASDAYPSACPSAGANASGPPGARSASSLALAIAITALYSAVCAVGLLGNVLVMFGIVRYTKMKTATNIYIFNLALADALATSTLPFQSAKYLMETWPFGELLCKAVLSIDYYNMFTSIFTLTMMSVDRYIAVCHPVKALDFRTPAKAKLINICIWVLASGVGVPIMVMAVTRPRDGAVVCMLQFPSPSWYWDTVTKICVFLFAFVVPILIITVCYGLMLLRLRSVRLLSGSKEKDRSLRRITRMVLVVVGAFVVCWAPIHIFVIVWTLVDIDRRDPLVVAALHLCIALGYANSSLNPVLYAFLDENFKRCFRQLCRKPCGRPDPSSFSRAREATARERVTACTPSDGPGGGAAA

κ-opioid receptor = biological target: T5, κ-opioid receptor (Homo sapiens, UniProt P41145); experiment: biochemical; assay type: binding; conditions: read-out: Ki (nM) ± SEM, κ
T5 construct: expressed in transfected cells; host or cells: CHO cells
T5 sequence (P41145 whole entry): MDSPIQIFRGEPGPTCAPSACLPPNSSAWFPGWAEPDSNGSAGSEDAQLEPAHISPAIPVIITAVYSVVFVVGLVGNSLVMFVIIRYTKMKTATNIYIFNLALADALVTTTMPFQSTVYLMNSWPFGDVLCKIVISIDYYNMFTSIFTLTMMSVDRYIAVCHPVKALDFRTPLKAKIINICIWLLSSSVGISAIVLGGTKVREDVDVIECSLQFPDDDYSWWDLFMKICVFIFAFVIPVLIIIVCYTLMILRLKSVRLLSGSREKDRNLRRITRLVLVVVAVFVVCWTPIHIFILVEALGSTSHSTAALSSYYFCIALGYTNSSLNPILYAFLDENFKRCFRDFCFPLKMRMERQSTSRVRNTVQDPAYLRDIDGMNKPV

Molecule `CN(C(=O)/C=C/c1ccoc1)[C@H]1CC[C@@]2(O)[C@H]3Cc4ccc(O)c5c4[C@@]2(CCN3CC2CC2)[C@H]1O5.O=C(O)C(=O)O` (relative stereo) [20a—Oxalate, 17-Cyclopropylmethyl-3,14β-dihydroxy-4,5α-epoxy-6α-[N-methyl-trans-3-(3-furyl)acrylamido]morphinan oxalate] has a solubility (Solubility in H2O) of 16000 µg/mL.

`O=C(/C=C/c1ccoc1)N[C@@H]1CC[C@@]2(O)[C@H]3Cc4ccc(O)c5c4[C@@]2(CCN3CC2CC2)[C@H]1O5.O=C(O)C(=O)O` (relative stereo) [Compound 19b.Oxalate, 17-Cyclopropylmethyl-3,14β-dihydroxy-4,5α-epoxy-6β-[-trans-3-(3-furyl)acrylamido]morphinan oxalate] gave a solubility (Solubility in H2O) of 24000 µg/mL.

Work on `CN(C(=O)/C=C/c1ccoc1)[C@@H]1CC[C@@]2(O)[C@H]3Cc4ccc(O)c5c4[C@@]2(CCN3CC2CC2)[C@H]1O5.O=C(O)C(=O)O` (relative stereo) [Compound 20b-oxalate, 17-Cyclopropylmethyl-3,14β-dihydroxy-4,5α-epoxy-6β-[N-methyl-trans-3-(3-furyl)acrylamido]morphinan oxalate] yielded a solubility (Solubility in H2O) of 32000 µg/mL.

In the case of `CN(C(=O)c1ccc(C(F)(F)F)cc1)[C@@H]1CC[C@@]2(O)[C@H]3Cc4ccc(O)c5c4[C@@]2(CCN3CC2CC2)[C@H]1O5.O=C(O)C(=O)O` [13b—Oxalate, 6-β-(4′-Trifluoromethyl)-N-methylbenzamido-14-hydroxy-17-(cyclopropylmethyl)nordesmorphine oxalate], the “Solubility in H2O” value (Solubility in H2O) is reported as 4700 µg/mL.

In the case of `CN(C(=O)c1ccc(Br)cc1)[C@H]1CC[C@@]2(O)[C@H]3Cc4ccc(O)c5c4[C@@]2(CCN3CC2CC2)[C@H]1O5.O=C(O)C(=O)O` [14a—Oxalate, 6-α-(4′-Bromo)-N-methylbenzamido-14-hydroxy-17-(cyclopropylmethyl)nordesmorphine oxalate], the “Solubility in H2O” value (Solubility in H2O) is reported as 6700 µg/mL.

For `CN(C(=O)c1ccc(Br)cc1)[C@@H]1CC[C@@]2(O)[C@H]3Cc4ccc(O)c5c4[C@@]2(CCN3CC2CC2)[C@H]1O5.O=C(O)C(=O)O` [14b. Oxalate, 6-β-(4′-Bromo)-N-methylbenzamido-14-hydroxy-17-(cyclopropylmethyl)nordesmorphine Oxalate], the “Solubility in H2O” value (Solubility in H2O) was 20000 µg/mL.

With `CN(C(=O)c1ccc(I)cc1)[C@H]1CC[C@@]2(O)[C@H]3Cc4ccc(O)c5c4[C@@]2(CCN3CC2CC2)[C@H]1O5.O=C(O)C(=O)O` [15a—Oxalate, 6-α-(4′-Iodo)-N-methylbenzamido-14-hydroxy-17-(cyclopropylmethyl)nordesmorphine oxalate] the “Solubility in H2O” value (Solubility in H2O) was 5000 µg/mL.

With `CN(C(=O)c1ccc(I)cc1)[C@@H]1CC[C@@]2(O)[C@H]3Cc4ccc(O)c5c4[C@@]2(CCN3CC2CC2)[C@H]1O5.O=C(O)C(=O)O` [15b—Oxalate, 6-β-(4′-Iodo)-N-methylbenzamido-14-hydroxy-17-(cyclopropylmethyl)nordesmorphine oxalate] the “Solubility in H2O” value (Solubility in H2O) was 20000 µg/mL.

For `CN(C(=O)c1ccc(C(C)(C)C)cc1)[C@H]1CC[C@@]2(O)[C@H]3Cc4ccc(O)c5c4[C@@]2(CCN3CC2CC2)[C@H]1O5.O=C(O)C(=O)O` [16a—Oxalate, 6-α-(4′-t-Butyl)-N-methylbenzamido-14-hydroxy-17-(cyclopropylmethyl)nordesmorphine oxalate], the “Solubility in H2O” value (Solubility in H2O) was 3300 µg/mL.

For `CN(C(=O)c1ccc(Cl)cc1)[C@H]1CC[C@@]2(O)[C@H]3Cc4ccc(O)c5c4[C@@]2(CCN3CC2CC2)[C@H]1O5.O=C(O)C(=O)O` [17a—Oxalate, 6-α-(4′-Chloro)-N-methylbenzamido-14-hydroxy-17-(cyclopropylmethyl)nordesmorphine oxalate], the “Solubility in H2O” value (Solubility in H2O) was 10000 µg/mL.

For `CN(C(=O)c1ccc(Cl)cc1)[C@@H]1CC[C@@]2(O)[C@H]3Cc4ccc(O)c5c4[C@@]2(CCN3CC2CC2)[C@H]1O5.O=C(O)C(=O)O` [17b—Oxalate, 6-β-(4′-Chloro)-N-methylbenzamido-14-hydroxy-17-(cyclopropylmethyl)nordesmorphine oxalate], the “Solubility in H2O” value (Solubility in H2O) was 6000 µg/mL.

With `CN(C(=O)c1ccc(Cl)c(Cl)c1)[C@H]1CC[C@@]2(O)[C@H]3Cc4ccc(O)c5c4[C@@]2(CCN3CC2CC2)[C@H]1O5.O=C(O)C(=O)O` [18a—Oxalate, 6-α-(3′,4′-Dichloro)-N-methylbenzamido-14-hydroxy-17-(cyclopropylmethyl)nordesmorphine oxalate] the “Solubility in H2O” value (Solubility in H2O) was 6700 µg/mL.

In the case of `CN(C(=O)c1ccc(Cl)c(Cl)c1)[C@@H]1CC[C@@]2(O)[C@H]3Cc4ccc(O)c5c4[C@@]2(CCN3CC2CC2)[C@H]1O5.O=C(O)C(=O)O` [18b—Oxalate, 6-β-(3′,4′-Dichloro)-N-methylbenzamido-14-hydroxy-17-(cyclopropylmethyl)nordesmorphine oxalate], the “Solubility in H2O” value (Solubility in H2O) is reported as 16000 µg/mL.

In the case of `C=C1CC[C@@]2(O)[C@H]3Cc4ccc(O)c5c4[C@@]2(CCN3CC2CC2)[C@H]1O5` [Compound 1b, nalmefene, reference compound], the “Overall effect on operant self-administration of saccharin vs vehicle” value [1] is reported as “did not have an overall effect”, the half-life at 40 μM [2] is reported as 20 min and the half-life at 40 μM [3] is reported as 20 min. For the same molecule, the “Overall effect on operant self-administration of 10% ethanol” value [4] was “had an overall effect”, the ED50 ([4]; Rattus norvegicus, po, read-out: ED50 for ethanol self-administration) was ~0.04 mg/kg and the “Post hoc analysis vs vehicle, operant self-administration of 10% ethanol” value ([4]; doses of 0.0125, 0.025 and 0.05 mg/kg) was “significantly inhibited”.

For `Cc1ccc(C(=O)N[C@@H]2CC[C@@]3(O)[C@H]4Cc5ccc(O)c6c5[C@@]3(CCN4CC3CC3)[C@H]2O6)cc1.O=C(O)C(=O)O` [Compound 4-oxalate, 6-β-(4′-Methyl)benzamido-14-hydroxy-17-(cyclopropylmethyl) nordesmorphine oxalate], the “Solubility in H2O” value (Solubility in H2O) was 2000 µg/mL.

In the case of `O=C(N[C@@H]1CC[C@@]2(O)[C@H]3Cc4ccc(O)c5c4[C@@]2(CCN3CC2CC2)[C@H]1O5)c1ccc(C(F)(F)F)cc1.O=C(O)C(=O)O` [Compound 5-oxalate, 6-β-(4′-Trimethylfluoro)benzamido-14-hydroxy-17-(cyclopropylmethyl)nordesmorphine-oxalate], the “Solubility in H2O” value (Solubility in H2O) is reported as 1000 µg/mL.

In the case of `O=C(N[C@@H]1CC[C@@]2(O)[C@H]3Cc4ccc(O)c5c4[C@@]2(CCN3CC2CC2)[C@H]1O5)c1ccc(I)cc1` [Compound 7, 6-β-(4′-Iodo)benzamido-14-hydroxy-17-(cyclopropylmethyl)nordesmorphine], the Emax [5] is reported as 0%, the “Overall effect on operant self-administration of saccharin vs vehicle” value [1] is reported as “did have an overall effect” and the Emax (δ-opioid receptor [6]) is reported as 28 to 63%. For the same molecule, the Emax (μ-opioid receptor [7]) was 28 to 63%, the “Overall effect on operant self-administration of 10% ethanol” value [4] was “had an overall effect” and the “Post hoc analysis vs vehicle, operant self-administration of 10% ethanol” value ([4]; only a dose of 0.05 mg/kg) was “significantly inhibited”.

For `CC(C)(C)c1ccc(C(=O)N[C@@H]2CC[C@@]3(O)[C@H]4Cc5ccc(O)c6c5[C@@]3(CCN4CC3CC3)[C@H]2O6)cc1.O=C(O)C(=O)O` [Compound 8-oxalate, 6-β-(4′-t-Butyl)benzamido-14-hydroxy-17-(cyclopropylmethyl)nordesmorphine-oxalate], the “Solubility in H2O” value (Solubility in H2O) was 6000 µg/mL.

For `N#Cc1cccc(C(=O)N[C@@H]2CC[C@@]3(O)[C@H]4Cc5ccc(O)c6c5[C@@]3(CC[N+]4([O-])CC3CC3)[C@H]2O6)c1` (stereo partly drawn) [Compound 53, 17-Cyclopropylmethyl-3,14β-dihydroxy-4,5α-epoxy-6β-[(3′ cyano)benzamido]morphinan-N-oxide], the Ki (μ-opioid receptor [8]) was 117 ± 7.8 nM, the “Inhibition of agonist binding, δ” value (δ-opioid receptor [9]) was <50% inh and the Ki (κ-opioid receptor) was 426 ± 21.5 nM.

`CN(C(=O)c1ccc(I)cc1)C1CCC2(O)C3Cc4ccc(O)c5c4C2(CC[N+]3([O-])CC2CC2)C1O5` (stereo not drawn) [Compound 54, 17-Cyclopropylmethyl-3,14-β-dihydroxy-4,5α-epoxy-6β-N-methyl-[(4′-iodo)benzamido]morphinan-N-oxide] gave a Ki (μ-opioid receptor [8]) of 148 ± 9.3 nM, a Ki (δ-opioid receptor [9]) of 3060 ± 271 nM and a Ki (κ-opioid receptor) of 117 ± 10 nM.

For `Cc1ccc(C(=O)N[C@@H]2CC[C@@]3(O)[C@H]4Cc5ccc(O)c6c5[C@@]3(CC[N+]4(C)[O-])[C@H]2O6)cc1` (stereo partly drawn) [Compound 55, 17-Methyl-3,14β-dihydroxy-4,5α-epoxy-6β-[(4′-methyl)benzamido]morphinan-N-oxide], the Ki (μ-opioid receptor [8]) was 244 ± 8.2 nM, the “Inhibition of agonist binding, δ” value (δ-opioid receptor [9]) was <50% inh and the Ki (κ-opioid receptor) was 1190 ± 134 nM.

`O=C(NC1CCC2(O)C3Cc4ccc(O)c5c4C2(CC[N+]3([O-])CC2CC2)C1O5)c1ccc(C(F)(F)F)c(F)c1` (stereo not drawn) [Compound 56, 17-Cyclopropylmethyl-3,14β-dihydroxy-4,5α-epoxy-6β-[(3′-fluoro-4′-trifluoromethyl)benzamido]morphinan-N-oxide] showed a Ki (μ-opioid receptor [8]) of 8.3 ± 0.3 nM, a Ki (δ-opioid receptor [9]) of 352 ± 10 nM and a Ki (κ-opioid receptor) of 3.8 ± 0.3 nM.

Work on `O=C(NC1CCC2(O)C3Cc4ccc(O)c5c4C2(CC[N+]3([O-])CC2CC2)C1O5)c1ccc(Cl)c(F)c1` (stereo not drawn) [Compound 59, 17-Cyclopropylmethyl-3,14β-dihydroxy-4,5α-epoxy-6β-[(4′-chloro-3′-fluoro)benzamido]morphinan-N-oxide] yielded a Ki (μ-opioid receptor [8]) of 14.1 ± 0.5 nM, a Ki (δ-opioid receptor [9]) of 390 ± 18 nM and a Ki (κ-opioid receptor) of 2.5 ± 0.09 nM.

In the case of `O=C(N[C@@H]1CC[C@@]2(O)[C@H]3Cc4ccc(O)c5c4[C@@]2(CC[N+]3([O-])CC2CC2)[C@H]1O5)c1ccc(Br)cc1` (stereo partly drawn) [Compound 63, 17-Cyclopropylmethyl-3,14β-dihydroxy-4,5α-epoxy-6β-[(4′-bromo)benzamido]morphinan-N-oxide], the Ki (μ-opioid receptor [8]) is reported as 7 ± 0.1 nM, the Ki (δ-opioid receptor [9]) is reported as 246 ± 15 nM and the Ki (κ-opioid receptor) is reported as 6.3 ± 0.6 nM.

“[D-pen2, D-pen5]-enkephalin [Compound 14, reference compound]” gave an Emax [5] of 0%.
